From BindingDB's records for patent US10308652 (Bristol-Myers Squibb, 2019)

Molecular target: Tumor necrosis factor (Homo sapiens, UniProt P01375)
Assay: TNF induced HEK-Blue assay
Protocol: Test compounds serially diluted in DMSO were plated in an assay plate (Labcyte, Cat. #LP-0200) at final concentrations ranging from 0.004 μM to 25μM. TNFα (final concentration 0.5 ng/ml) or CD4OL (final concentration 30 ng/ml) in assay buffer [DMEM, 4.5 g/l glucose (Gibco, Cat. 21063-029), 10% FBS (Sigma, F4135), 1% Penicillin-Streptomycin (Gibco, Cat. 15140-122), 1% Anti-Anti (Gibco, Cat. 15240-112) and 2 mM L-glutamine (Gibco, Cat. 25030-081)] was then added to the assay plate. After a 30 minute pre-incubation at 37° C. and 5% CO2, HEK-Blue-CD40L cells (InvivoGen, Cat. Code hkb-cd40) containing a NF-κB-driven secreted alkaline phosphatase reporter gene were seeded into the assay plate at a density of 20,000 cells per well. This plate was then incubated for 18 h at 37° C. and 5% CO2. Secreted alkaline phosphatase expression was measured using QUANTI-Blue (InvivoGen, Cat. Code rep-qb1) according to manufacturer's specifications and the assay plate was read on a PerkinElmer Envision at 620 nm.

Sequence of Tumor necrosis factor (P01375 whole entry): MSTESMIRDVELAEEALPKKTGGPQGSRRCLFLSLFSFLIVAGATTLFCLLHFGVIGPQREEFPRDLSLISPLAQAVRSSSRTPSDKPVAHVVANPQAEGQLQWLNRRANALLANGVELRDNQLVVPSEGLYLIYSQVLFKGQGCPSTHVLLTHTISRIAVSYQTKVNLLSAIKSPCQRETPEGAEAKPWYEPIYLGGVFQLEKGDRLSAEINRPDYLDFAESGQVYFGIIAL

## CC(C)(O)c1ccc(-c2ccc3nc4c(n3n2)[C@@H](c2ccccc2OC(F)F)NC[C@H]4O)cc1 [US10308652, Example 6]
  IC50: < 1000 nM
